Where two headings read alike, the source gives them in different places.
Columns and labels:
[1] = test system: FMAL-actin plus TMR-cC0-C2; assay: Selleck library HTS, 473 nm excitation (FLT of FMAL-actin with TMR-cC0-C2, FLT-FRET); format: binding, human; conditions: for 473-nm Δτ, Repeat 1 / 473-nm Δτ, Repeat 2: initial screen, 30 μM compound; for 473-nm z-score (based on avg Δτ): robust z-score, hit threshold ±4, 30 μM compound
In short: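 Donor fluorescence lifetime was then recorded. Waveforms were fit to a single exponential, and ΔFLT was obtained after a moving-median plate-gradient correction (half-row window), rescaled by the median DMSO lifetime.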

[2] = test system: FMAL-actin/PKA-phosphorylated TMR-cC0-C2 interaction; assay: FLT-FRET concentration-response assay, FMAL-actin plus PKA-phosphorylated TMR-cC0-C2; format: binding, human
Procedure: (§1) Compounds identified as initial hits were further examined to determine the concentration–response curves for seven conditions ([1]): FMAL-actin alone identified actin-binding compounds that alter the FLT of FMAL-actin ([2]).
(§2) Fluorescence lifetime (FLT) measurements were acquired using a high-throughput FLT plate reader (Fluorescence Innovations, Inc) ([14], [27]), provided by Photonic Pharma LLC. […] The observed waveforms were analyzed as described previously ([15], [28]).
(§3) The primary hits were dissolved in DMSO to make a 10 mM stock solution, which was serially diluted in 96-well mother plates. Hits were screened at eight concentrations (0.5–100 μM). […] Compounds (1 μl) were transferred from the mother plates into 384-well plates using a Mosquito HV liquid handler (TTP Labtech Ltd, Hertfordshire, UK). The same procedure of dispensing as for the pilot screening was applied in the concentration-response assays. Concentration dependence of the FLT-FRET (E/EDMSO) or FLT-TMR (Δτ) change data was fit to a Hill equation only under certain conditions to help guide the eye (Fig. 4).

TMR-cC0-C2 = assay: Selleck library HTS, 532 nm excitation (FLT of TMR-cC0-C2 in presence of FMAL-actin); format: binding, human; conditions: for 532-nm Δτ, Repeat 1 / 532-nm Δτ, Repeat 2: initial screen, 30 μM compound; for 532-nm z-score (based on avg Δτ): robust z-score, hit threshold ±4, 30 μM compound
[3] = test system: FMAL-actin/TMR-fC1-C2 interaction; assay: FLT-FRET concentration-response assay, FMAL-actin plus TMR-fC1-C2; format: binding
Procedure: as §1, §2, §3

[4] = test system: FMAL-actin/TMR-cC0-C2 interaction; assay: FLT-FRET concentration-response assay, FMAL-actin plus TMR-cC0-C2; format: binding, human; conditions: for effect on FLT-FRET / binding between FMAL-actin and TMR-cC0-C2 (in words): unphosphorylated cC0-C2; for specificity of FLT-FRET effect for unphosphorylated over phosphorylated cC0-C2: effect on cC0-C2 compared to phosphorylated cC0-C2 (Tables 1 and 2)
In short: (§4)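 Hits tested at eight concentrations (0.5–100 μM) and read on a high-throughput fluorescence lifetime plate reader. Hill fits applied only under certain conditions.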

[5] = test system: TMR-cC0-C2 (C0-C2 fragment of human cMyBP-C); assay: FLT-TMR concentration-response assay (FLT of TMR on cC0-C2, no actin); format: binding; conditions: for cC0-C2/cC0-C2#P (ratio of FLT changes) / cC0-C2 FLT change (% change from DMSO, FLT of TMR-MyBP-C): 60 μM compound; for effect on FLT of TMR-cC0-C2 (in words): concentration-response, no actin; for difference in effect on TMR FLT between unphosphorylated and phosphorylated TMR-cC0-C2: from Table 3
In short: as §4

[6] = test system: TMR-fC1-C2 (C1-C2 of fast skeletal MyBP-C); assay: FLT-TMR concentration-response assay, fC1-C2; format: binding; conditions: for cC0-C2/fC1-C2 (ratio of FLT changes) / fC1-C2 FLT change (% change from DMSO, FLT of TMR-MyBP-C): 60 μM compound; for effect on FLT of TMR-fC1-C2 (in words): concentration-response, no actin; for difference in effect on TMR FLT between unphosphorylated TMR-cC0-C2 and TMR-fC1-C2: from Table 3
In short: as §4

[7] = test system: PKA-phosphorylated TMR-cC0-C2 (cC0-C2#P); assay: FLT-TMR concentration-response assay, PKA-phosphorylated cC0-C2; format: binding, human; conditions: for cC0-C2#P FLT change (% change from DMSO, FLT of TMR-MyBP-C): 60 μM compound; for effect on FLT of PKA-phosphorylated TMR-cC0-C2 (in words): concentration-response, no actin
In short: as §4

effect on FLT-FRET / binding between FMAL-actin and PKA-phosphorylated TMR-cC0-C2 (in words) [2]	effect on FLT-FRET / binding between FMAL-actin and TMR-fC1-C2 (in words) [3]	effect on FLT-FRET / binding between FMAL-actin and TMR-cC0-C2 (in words) [4]	Compound	473-nm Δτ, Repeat 1 [1]	473-nm Δτ, Repeat 2 [1]	473-nm z-score (based on avg Δτ) [1]	532-nm Δτ, Repeat 1 (TMR-cC0-C2)	532-nm Δτ, Repeat 2 (TMR-cC0-C2)	532-nm z-score (based on avg Δτ) (TMR-cC0-C2)	cC0-C2/cC0-C2#P (ratio of FLT changes) [5]	cC0-C2 FLT change (% change from DMSO, FLT of TMR-MyBP-C) [5]	effect on FLT of TMR-cC0-C2 (in words) [5]	cC0-C2/fC1-C2 (ratio of FLT changes) [6]	fC1-C2 FLT change (% change from DMSO, FLT of TMR-MyBP-C) [6]	effect on FLT of TMR-fC1-C2 (in words) [6]	difference in effect on TMR FLT between unphosphorylated TMR-cC0-C2 and TMR-fC1-C2 [6]	cC0-C2#P FLT change (% change from DMSO, FLT of TMR-MyBP-C) [7]	specificity of FLT-FRET effect for unphosphorylated over phosphorylated cC0-C2 [4]	further results
increases	does not have any effect	does not have any effect	Clc1ccc(C(Cn2ccnc2)OCc2ccc(Sc3ccccc3)cc2)c(Cl)c1 (stereo not shown) [Fenticonazole nitrate]	-0.069 ns	-0.104 ns	-4.80	-0.011 ns	-0.035 ns	-1.35	0.8	−4.7%	slightly decreases	11.8	0.4%	does not affect	11.8 fold	−6.0%	–	preference for increasing the binding of phosphorylated over unphosphorylated cC0-C2 (FLT-FRET) [2]: 5 fold; effect on FLT of PKA-phosphorylated TMR-cC0-C2 (in words) [7]: slightly decreases
decreased	decreased	decreased	COC(=O)N[C@H](C(=O)N1CCC[C@H]1c1nc(-c2ccc3c(c2)O[C@@H](c2ccccc2)n2c-3cc3cc(-c4c[nH]c([C@@H]5CCCN5C(=O)[C@@H](NC(=O)OC)C(C)C)n4)ccc32)c[nH]1)C(C)C [Elbasvir]	0.142 ns	0.080 ns	6.24	-0.002 ns	0.011 ns	0.31	–	–	do not affect	–	–	do not affect	–	–	5 fold	–
decreased	decreased	decreased	CCN(C(=O)c1c(O)c2c(Cl)cccc2n(C)c1=O)c1ccccc1 [Laquinimod]	0.109 ns	0.071 ns	5.08	-0.017 ns	-0.016 ns	-0.99	–	–	do not affect	–	–	do not affect	–	–	stronger reduction of FRET with non-phosphorylated than phosphorylated	–
decreased	decreased	decreased	CCC(=O)O[C@H]1[C@H](O[C@@H]2[C@@H](C)[C@H](O[C@H]3C[C@@](C)(OC)[C@@H](O)[C@H](C)O3)[C@@H](C)C(=O)O[C@H](CC)[C@@](C)(O)[C@H](O)[C@@H](C)C(=O)[C@H](C)C[C@@]2(C)O)O[C@H](C)C[C@@H]1N(C)C [Erythromycin estolate]	0.149 ns	0.101 ns	7.01	0.002 ns	-0.031 ns	-0.86	5.9	−14.1%	affect	6.7	−2.1%	decreases	6.7 fold	−2.4%	–	effect on FLT-FRET / binding between FMAL-actin and PKA-phosphorylated TMR-cC0-C2 (in words) ([2]; listed as Erthromycin estolate): biphasic effect; effect on FLT-FRET / binding between FMAL-actin and TMR-fC1-C2 (in words) ([3]; listed as Erthromycin estolate): biphasic effect; effect on FLT-FRET / binding between FMAL-actin and TMR-cC0-C2 (in words) ([4]; listed as Erthromycin estolate): biphasic effect; effect on FLT of TMR-cC0-C2 (in words) ([5]; listed as Erthromycin estolate): decreases; difference in effect on TMR FLT between unphosphorylated and phosphorylated TMR-cC0-C2 [5]: 5.9 fold; effect on FLT of PKA-phosphorylated TMR-cC0-C2 (in words) [7]: decreases
decreased	decreased	decreased	CCC(C)(Oc1ccc(C2(c3ccc(OC(C)(CC)C(=O)O)cc3)CCCCC2)cc1)C(=O)O (stereo not shown) [Clinofibrate]	0.090 ns	0.075 ns	4.65	0.006 ns	0.016 ns	0.70	–	–	do not affect	–	–	do not affect	–	–	stronger reduction of FRET with non-phosphorylated than phosphorylated	–
decreased	decreased	decreased	COc1cc(Nc2ncc(F)c(Nc3ccc4c(n3)N(COP(=O)(O)O)C(=O)C(C)(C)O4)n2)cc(OC)c1OC [Fostamatinib (R788), Fostamatinib]	0.110 ns	0.046 ns	4.40	-0.027 ns	-0.063 ns	-2.72	3.3	2.3%	affect	5.8	0.4%	–	5.8 fold	0.7%	5 fold	difference in effect on TMR FLT between unphosphorylated and phosphorylated TMR-cC0-C2 [5]: 3.3 fold
no effect	affected the binding to actin	affected the binding to actin	Tocofersolan	-0.166 ns	-0.159 ns	-9.06	0.072 ns	0.065 ns	4.23	1.0	3.3%	–	1.2	2.8%	–	–	3.2%	13–54 fold	fold effect on increased FRET (or binding) (Table 2) ([4]; comparison not given): fivefold or greater

— article PMC10692721, “Drug discovery for heart failure targeting myosin-binding protein C” (The Journal of Biological Chemistry, 2023)
